This experiment is described as follows: Stopped-flow tyrosine fluorescence, Ca^2+ dissociation from S100A4 constructs. Format: binding. The procedure:
Stopped-flow measurements were carried out using an SX18-MV apparatus (Applied Photophysics Ltd., Leatherhead, UK) with a dead time of 1.5 ms.[40] Records were generally captured on a logarithmic time base. Absorption (turbidity) measurements were usually recorded using a 10-mm pathlength, while fluorescence was recorded with a 2-mm pathlength for excitation and emission. The stated concentrations of components refer to the reaction chamber after mixing, unless otherwise indicated. Tyrosine fluorescence was excited at 280 nm, and the emission was collected through a UG11 bandpass filter plus a 305-nm longpass filter.[18] Fluorescein fluorescence was excited at 480 nm, and the emission was detected through a 515-nm longpass filter. Quin-2 fluorescence was measured by excitation at 336 nm, and emission was collected with a 455-nm longpass filter. For simultaneous recording of light scatter, a second channel was monitored through a UG11 filter. Rate constants were obtained by fitting to single-exponential or double-exponential functions using Kaleidagraph (Synergy Software) or Applied Photophysics Pro-Data software. Modeling of kinetic schemes was performed using Berkeley Madonna software.
Dissociation of Ca2+ from wild type S100A4 (black), Y19F mutant (blue) and Y75F mutant (red) monitored by tyrosine fluorescence. 13 M of each S100A4 construct plus 100 µM Ca2+ was mixed with 200 µM EGTA (reaction chamber concentrations) and the tyrosine fluorescence monitored. The buffer was 20 mM NaCl, 10 mM HEPES, 2 mM DTT at pH 7.5 and 20 °C. Fits to a single exponential function yielded rate constants of 20 s-1, 113 s-1 and 45 s-1 for wild-type, Y19F mutant and Y75F mutant respectively. (d) Dissociation of Ca2+ from wild type S100A4 (black), E33Q mutant (blue) and D63N mutant (red) monitored by tyrosine fluorescence. 13 M of each S100A4 construct plus 15 M Ca2+ was mixed with 200 M EGTA (reaction chamber concentrations) and the tyrosine fluorescence monitored. Fits to a single exponential function yielded rate constants of 22 s-1 and 49 s-1 for wild-type and E33Q construct respectively, while that […]
The records for the mutants were vertically offset for clarity in both […]

Consider “S100A4: recombinant S100A4 expressed in E. coli BL21(DE3)”, for which the “Ca^2+ dissociation rate constant (tyrosine)” value amounted to 22 s^− 1 (13 μM S100A4 + 15 μM Ca^2+ mixed with 200 μM EGTA) and 20 s^− 1 (13 μM S100A4 + 100 μM Ca^2+ mixed with 200 μM EGTA, 20 mM NaCl, 10 mM Hepes, 2 mM DTT, pH 7.5, 20 °C).

The values are drawn from publication PMC3025356, “Mechanism of the Ca^2+-Dependent Interaction between S100A4 and Tail Fragments of Nonmuscle Myosin Heavy Chain IIA” (Journal of Molecular Biology, 2011).
